Experimental data reported in US9493464B2, “Wee1 degradation inhibitors” (The Scripps Research Institute, priority 2012, dated 2016).
Where “and” joins values, the source holds several entries; their conditions need not be identical. Equal entries are not always repeated.

Legend:
[1] = tested on: K328M-Wee1-luciferase; assay: Wee1-luciferase assay (stabilization of K328M-Wee1-luciferase); assay type: cell-based; conditions: for % Inhibition, Wee1 Degradation: at 250 nM, reported relative to SR-1277 = 100%
Description: Steady-state level of K328M-Wee1-Luciferase (K328M-Wee1-Luc) was divided by Luciferase level (Luc) and plotted.
(§1) Similar assays have previously been described; PubChem AID 1807.

[2] = biological target: CK1δ (Homo sapiens, UniProt P48730); assay: In vitro kinase assay, CK1d, 32P-ATP filter binding (Reaction Biology Corporation); assay type: biochemical; conditions: footnote a: determined by Reaction Biology Corporation; read-out: IC50 CK1d
CK1δ, sequence (P48730 whole entry): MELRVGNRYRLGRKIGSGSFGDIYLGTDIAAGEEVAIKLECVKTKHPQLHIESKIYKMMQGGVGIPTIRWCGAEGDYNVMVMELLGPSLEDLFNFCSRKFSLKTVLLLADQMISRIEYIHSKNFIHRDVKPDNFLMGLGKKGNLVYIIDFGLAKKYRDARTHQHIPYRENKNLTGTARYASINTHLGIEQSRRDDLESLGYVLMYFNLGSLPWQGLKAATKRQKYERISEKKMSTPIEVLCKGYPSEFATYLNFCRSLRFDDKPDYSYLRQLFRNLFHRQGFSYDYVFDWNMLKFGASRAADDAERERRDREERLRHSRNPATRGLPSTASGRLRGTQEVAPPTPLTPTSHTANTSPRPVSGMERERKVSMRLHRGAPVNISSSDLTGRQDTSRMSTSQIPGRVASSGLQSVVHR
Description: (§2) Compounds were tested in 10-dose IC50 mode with 3-fold serial dilution starting at 50 μM. […] Reactions were carried out at 10 μM ATP. Average and standard deviations of reactions carried out in triplicate are shown.
(§3) In vitro kinase assay to detect CK1 or FLT3 activity: CK1 and FLT3 assays as well as complete kinase profile of 296 kinases was performed by Reaction Biology Corporation. For FLT3 20 μM final Abltide was used, sequence: [[…]]. For CK1 (all isoforms) 20 μM CK1 tide was used, sequence: [KRRRAL[pS]VASLPGL] in a standard kinase assay with ^32P-ATP and purified kinase. Incorporation of ^32P-ATP into the peptide was measured after a filter-binding assay. In-house CK1d inhibition assays were performed using a standard homogenous time-resolved fluorescence resonance energy transfer (TR-FRET) format in 50 mM Hepes, pH 7.0, 2.5 mM MgCl2, 0.1 mg/ml bovine serum albumin, 1 mM DL-dithiothreitol, 0.01% Triton X-100 (all from Sigma-Aldrich). Briefly, the CK1δ substrate (DEKTDDE, containing CK1 consensus sequence; 4 μL of a 500 nM stock solution) is labeled with a small Ulight acceptor dye (PerkinElmer). In the presence of 10 μL of 10 nM CK1δ, the Ulight peptide is phosphorylated at a single amino acid that is specifically recognized by a europium chelate (Eu)-labeled phosphospecific antibody. Assays were performed in the presence of 2 μL of compound at different (measured) concentrations, and reactions were stopped by adding 10 μL of 4 nM Eu-anti-p-Topo-IIa (PerkinElmer) in Lance Detection Buffer (Perkin Elmer). Upon excitation of the Eu-labeled antibody, energy is transferred to the acceptor dye resulting in the emission of detected light at 665 nm.

[3] = biological target: T1, FLT3 (Homo sapiens, UniProt P36888); assay: In vitro kinase assay, FLT3 (Reaction Biology Corporation); assay type: biochemical; conditions: determined by Reaction Biology Corporation; read-out: IC50 FLT3
T1 construct: Reaction Biology Corporation (contract assay)
T1 sequence (P36888 27-993): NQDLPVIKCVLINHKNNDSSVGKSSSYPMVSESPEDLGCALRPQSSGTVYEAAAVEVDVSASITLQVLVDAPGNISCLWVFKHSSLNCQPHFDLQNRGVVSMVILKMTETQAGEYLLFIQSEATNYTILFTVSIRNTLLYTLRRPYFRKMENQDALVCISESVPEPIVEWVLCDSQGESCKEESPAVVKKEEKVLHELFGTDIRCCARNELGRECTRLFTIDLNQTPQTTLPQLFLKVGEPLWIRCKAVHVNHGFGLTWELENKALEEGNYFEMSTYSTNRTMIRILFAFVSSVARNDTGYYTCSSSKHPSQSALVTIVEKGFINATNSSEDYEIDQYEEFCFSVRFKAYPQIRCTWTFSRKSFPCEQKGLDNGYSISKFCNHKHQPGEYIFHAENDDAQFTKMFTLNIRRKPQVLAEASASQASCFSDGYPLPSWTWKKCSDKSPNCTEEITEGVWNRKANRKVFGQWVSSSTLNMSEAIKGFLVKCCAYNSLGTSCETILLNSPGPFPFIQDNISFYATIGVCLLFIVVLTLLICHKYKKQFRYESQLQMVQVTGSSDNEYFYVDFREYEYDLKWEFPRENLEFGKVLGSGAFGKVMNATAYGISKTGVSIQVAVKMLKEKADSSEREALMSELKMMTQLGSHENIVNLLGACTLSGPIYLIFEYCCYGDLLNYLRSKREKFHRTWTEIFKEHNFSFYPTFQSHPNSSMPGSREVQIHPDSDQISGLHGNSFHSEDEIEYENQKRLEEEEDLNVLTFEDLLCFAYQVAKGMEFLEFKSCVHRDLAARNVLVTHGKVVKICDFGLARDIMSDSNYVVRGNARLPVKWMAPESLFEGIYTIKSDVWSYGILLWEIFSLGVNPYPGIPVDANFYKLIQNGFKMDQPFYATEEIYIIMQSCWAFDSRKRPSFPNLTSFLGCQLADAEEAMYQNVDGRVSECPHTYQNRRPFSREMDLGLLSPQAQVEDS
Description: as §2, §3

[4] = tested on: SNB-75 (CNS); assay: NCI Dose Growth Inhibition assay (NCI-60); assay type: cell-based; conditions: Homo sapiens; SNB-75 (CNS); read-out: GI50
Description: (§4) Table 3, below, illustrates the activity of some of the compounds of the present invention in the National Cancer Institute's Dose Growth Inhibition assay against several human tumor cell lines selected from the NCI-60 panel.
(§5) NCI-60 Cancer Cell Line Screening was performed by the National Cancer Institute, using the procedures described on their website (http://dtp.nci.nih.gov/branches/btb/ivelsp.html)

[5] = tested on: A498 (renal); assay: NCI Dose Growth Inhibition assay (NCI-60); assay type: cell-based; conditions: Homo sapiens; A498 (renal); read-out: GI50
Description: as §4, §5

[6] = tested on: COLO 205 (colon); assay: NCI Dose Growth Inhibition assay (NCI-60); assay type: cell-based; conditions: Homo sapiens; COLO 205 (colon); read-out: GI50
Description: as §4, §5

[7] = tested on: RXF393 (renal); assay: NCI Dose Growth Inhibition assay (NCI-60); assay type: cell-based; conditions: Homo sapiens, RXF 393; RXF393 (renal); read-out: GI50
Description: as §4, §5

[8] = tested on: MDA-MB-468 (breast); assay: NCI Dose Growth Inhibition assay (NCI-60); assay type: cell-based; conditions: Homo sapiens; MDA-MB-468 (breast); read-out: GI50
Description: as §4, §5

[9] = tested on: UACC-62 (melanoma); assay: NCI Dose Growth Inhibition assay (NCI-60); assay type: cell-based; conditions: Homo sapiens; UACC-62 (melanoma); read-out: GI50
Description: as §4, §5

[10] = tested on: cerebellar granule cell progenitors (GCPs); assay: In vitro proliferation of cerebellar granule cell progenitors (3H-thymidine uptake); assay type: cell-based, mouse; conditions: 24 hours; result in words
Description: GCPs were incubated with DMSO, 5 μM D4476 (known CK1δ and CK1ε inhibitor), or 50 μM D4476 and processed for ^3H-thymidine incorporation after 24 hours. A representative experiment performed in triplicate is shown.

[11] = tested on: Luciferase; assay: Luciferase alone control (PGL3 vector); assay type: cell-based; conditions: HeLa cells; result in words
Description: The percentage of signal relative to the proteasome inhibitor MG132 is shown. […] A Western blot is shown of endogenous Wee1 or Skp1 (loading control) of HeLa cells incubated with 5 μM of indicated compounds for 24 hours. […] The 0 time point was set to 100%. […] The extent of degradation was measured as in FIG. D.
5 μM of indicated compounds were incubated with K328M-Wee1-Luciferase or Luciferase expressing HeLa cells and the extent of stabilization measured after adding Brite-lite. MG132 was used as a positive control.
as §1

SMILES	% Inhibition, Wee1 Degradation [1] [%]	IC50 [2]	IC50 [3] [nM]	GI50 [4] [nM]	GI50 [5] [nM]	GI50 [6] [nM]	GI50 [7] [nM]	GI50 [8] [nM]	GI50 [9] [nM]	further results
CCOC(=O)c1cccc2[nH]c(CNc3nc(N4CCOCC4)nc4c3ncn4-c3ccsc3)nc12 [SR-1282]	97.3	361 nM	548							EC50 ([1]; read-out: Wee1 Stabilization): 207 nM
c1ccc2[nH]c(CNc3nc(N4CCOCC4)nc4c3ncn4C3CCCC3)nc2c1 [SR-2149]	6.1	46 nM	401							
FC(F)(F)c1ccc2[nH]c(CNc3nc(N4CCOCC4)nc4c3ncn4-c3ccsc3)nc2c1 [SR-1273]	46.3	13 nM	509							
N#Cc1ccc2[nH]c(CNc3nc(N4CCOCC4)nc4c3ncn4-c3ccsc3)nc2c1 [SR-1276]	85.9	11 nM	62							
CS(=O)(=O)c1ccc2[nH]c(CNc3nc(N4CCOCC4)nc4c3ncn4-c3ccsc3)nc2c1 [SR-2797]		10 nM	69							
Clc1ccc2[nH]c(CNc3nc(N4CCNCC4)nc4c3ncn4-c3ccoc3)nc2c1 [SR-2889]		5 nM	82	< 10	24	< 10	< 10	< 10	17	
CS(=O)(=O)c1cccc2[nH]c(CNc3nc(N4CCOCC4)nc4c3ncn4-c3ccsc3)nc12 [SR-2805]		16 nM	57							
NC(=O)c1ccc(-c2nc(-c3ccc4c(c3)OCCO4)c(-c3ccccn3)[nH]2)cc1 [Compound D4476, reference compound]										inhibition of GCP proliferation (3H-thymidine) [10]: inhibited GCP proliferation; Luciferase levels [11]: does not affect Luciferase levels; stabilization of K328M-Wee1-luciferase ([1]; HeLa cells, result in words): stabilizes K328M-Wee1-luciferase
COc1ccc2[nH]c(CNc3nc(N4CCNCC4)nc4c3ncn4-c3ccoc3)nc2c1 [SR-2891]		11 nM	782	24	321	30	49	< 10	174	
CN1CCN(c2nc(NCc3nc4cc(Cl)ccc4[nH]3)c3ncn(-c4ccoc4)c3n2)CC1 [SR-2849]		11 nM	182	19	113	25	17	< 10	130	
O=[N+]([O-])c1ccc2[nH]c(CNc3nc(N4CCOCC4)nc4c3ncn4-c3ccsc3)nc2c1 [SR-1278]	18.7	21 nM	240							
Fc1cccc(-n2cnc3c(NCc4nc5cc(Cl)ccc5[nH]4)nc(N4CCNCC4)nc32)c1 [SR-2890]		4 nM	809	46	207	29	41	12	182	
O=[N+]([O-])c1cccc2[nH]c(CNc3nc(N4CCOCC4)nc4c3ncn4-c3ccoc3)nc12 [SR-2007]	81.1	18 nM and 19 nM	345							
